Where a name gives a salt, the structure may show the parent alone.
Assays:
[1] = Solid state stability at controlled relative humidity, room temperature, open Petri dish; format: physicochemical
[2] = Kinetic solubility at various pH ranges; format: physicochemical
Hygroscopicity = format: physicochemical
[3] = API mass increase of the salt vs. the free base
Compressibility = format: physicochemical
[4] = 20-100% relative humidity (RH) at room temperature (RT) in open Petri dish

| SMILES | period of stability [1, 4] | kinetic solubility [2] | hygroscopicity (Hygroscopicity) | API mass increase of the salt vs. the free base [3] | compressibility properties (Compressibility) | period of stability ([1]; 20-40% relative humidity (RH) at room temperature (RT) in open Petri dish) |
| --- | --- | --- | --- | --- | --- | --- |
| CNCc1ccc(-c2[nH]c3cc(F)cc4c3c2CCNC4=O)cc1.Cc1ccc(S(=O)(=O)O)cc1 [8-fluoro-2-{4-[(methylamino)methyl]phenyl}-1,3,4,5-tetrahydro-6H-azepino[5,4,3-cd]indol-6-oneTosylate] | at least 1 month | improved | non-hygroscopic | 53% | good |  |
| CNCc1ccc(-c2[nH]c3cc(F)cc4c3c2CCNC4=O)cc1 [Crystalline Form C of Rucaparib base, 8-fluoro-2-{4-[(methylamino)methyl]phenyl}-1,3,4,5-tetrahydro-6H-azepino[5,4,3-cd]indol-6-one] | at least 1 month | improved | non-hygroscopic | no API mass increase |  |  |
| CNCc1ccc(-c2[nH]c3cc(F)cc4c3c2CCNC4=O)cc1 [Crystalline Form I of Rucaparib base, 8-fluoro-2-{4-[(methylamino)methyl]phenyl}-1,3,4,5-tetrahydro-6H-azepino[5,4,3-cd]indol-6-one] | at least 1 month | improved | non-hygroscopic | no API mass increase |  |  |
| CNCc1ccc(-c2[nH]c3cc(F)cc4c3c2CCNC4=O)cc1 [Crystalline Form II of Rucaparib base, 8-fluoro-2-{4-[(methylamino)methyl]phenyl}-1,3,4,5-tetrahydro-6H-azepino[5,4,3-cd]indol-6-one] |  |  |  | no API mass increase |  | at least 1 month |
| CNCc1ccc(-c2[nH]c3cc(F)cc4c3c2CCNC4=O)cc1 [Crystalline Form IV of Rucaparib Hemi-Edisylate] [8-fluoro-2-{4-[(methylamino)methyl]phenyl}-1,3,4,5-tetrahydro-6H-azepino[5,4,3-cd]indol-6-one Hemi-Edisylate] | at least 1 month | improved | non-hygroscopic | 9% | good |  |
| CNCc1ccc(-c2[nH]c3cc(F)cc4c3c2CCNC4=O)cc1 [Rucaparib camsylate, 8-fluoro-2-{4-[(methylamino)methyl]phenyl}-1,3,4,5-tetrahydro-6H-azepino[5,4,3-cd]indol-6-one ((1S,4R)-7,7 dimethyl-2-oxobicyclo[2.2.1]hept-1-yl) methane-sulfonic acid salt, reference compound] |  |  |  | 72% |  |  |

From patent US11667646B2, “Solid state forms of rucaparib and of rucaparib salts” (ASSIA CHEMICAL INDUSTRIES LTD., priority 2017, dated 2023)
